Key:
[1] = tested on: Escherichia coli; assay: Antimicrobial activity against Escherichia coli 25922 assessed as absence bacterial growth measured after 18 to 24 hrs incubation in presence of FeCl3 by NCCLS method; type: functional; details: time 18-24 hrs
[2] = Hemolytic activity in human RBC at effective concentration at 128 uM measured after 1 hr by microplate reader relative to control; type: toxicity, cell-based, Erythrocyte; details: human red blood cells (erythrocytes), read-out: Activity
[3] = tested on: Listeria monocytogenes; assay: Antimicrobial activity against Listeria monocytogenes 1.10753 assessed as absence bacterial growth measured after 18 to 24 hrs incubation by NCCLS method; type: functional; details: time 18-24 hrs
[4] = tested on: Staphylococcus epidermidis; assay: Antimicrobial activity against Staphylococcus epidermidis 12228 assessed as bacterial killing measured after 16 hrs incubation; type: functional
[5] = tested on: Escherichia coli; assay: Antimicrobial activity against Escherichia coli K88 assessed as absence bacterial growth measured after 18 to 24 hrs incubation by NCCLS method; type: functional; details: time 18-24 hrs
[6] = tested on: Escherichia coli; assay: Antimicrobial activity against Escherichia coli 25922 assessed as absence bacterial growth measured after 18 to 24 hrs incubation by NCCLS method; type: functional; details: time 18-24 hrs
[7] = tested on: Staphylococcus aureus; assay: Antimicrobial activity against Staphylococcus aureus 25923 assessed as bacterial killing measured after 16 hrs incubation; type: functional
[8] = tested on: Escherichia coli; assay: Antimicrobial activity against Escherichia coli 25922 assessed as absence bacterial growth measured after 18 to 24 hrs incubation in presence of KCl by NCCLS method; type: functional; details: time 18-24 hrs
[9] = tested on: Acinetobacter baumannii; assay: Antimicrobial activity against Acinetobacter baumannii 1.6769 assessed as absence bacterial growth measured after 18 to 24 hrs incubation by NCCLS method; type: functional; details: time 18-24 hrs
[10] = tested on: Salmonella typhimurium; assay: Antimicrobial activity against Salmonella typhimurium 14028 assessed as absence bacterial growth measured after 18 to 24 hrs incubation by NCCLS method; type: functional, Salmonella enterica subsp. enterica serovar Typhimurium; details: Salmonella enterica, time 18-24 hrs
[11] = tested on: Staphylococcus epidermidis; assay: Antimicrobial activity against Staphylococcus epidermidis 12228 assessed as absence bacterial growth measured after 18 to 24 hrs incubation by NCCLS method; type: functional; details: time 18-24 hrs
[12] = tested on: Salmonella typhimurium; assay: Antimicrobial activity against Salmonella typhimurium 14028 assessed as bacterial killing measured after 16 hrs incubation; type: functional, Salmonella enterica subsp. enterica serovar Typhimurium; details: Salmonella enterica
[13] = tested on: Escherichia coli; assay: Antimicrobial activity against Escherichia coli 25922 assessed as absence bacterial growth measured after 18 to 24 hrs incubation in presence of MgCl2 by NCCLS method; type: functional; details: time 18-24 hrs
[14] = tested on: Escherichia coli; assay: Antimicrobial activity against Escherichia coli 25922 assessed as absence bacterial growth measured after 18 to 24 hrs incubation in presence of 50% serum by NCCLS method; type: functional; details: time 18-24 hrs
[15] = tested on: Pseudomonas aeruginosa; assay: Antimicrobial activity against Pseudomonas aeruginosa 27853 assessed as absence bacterial growth measured after 18 to 24 hrs incubation by NCCLS method; type: functional; details: time 18-24 hrs
[16] = tested on: Enterococcus faecalis; assay: Antimicrobial activity against Enterococcus faecalis 29212 assessed as bacterial killing measured after 16 hrs incubation; type: functional
[17] = tested on: Pseudomonas aeruginosa; assay: Antimicrobial activity against Pseudomonas aeruginosa 27853 assessed as bacterial killing measured after 16 hrs incubation; type: functional
[18] = tested on: Salmonella typhimurium; assay: Antimicrobial activity against Salmonella typhimurium C7731 assessed as bacterial killing measured after 16 hrs incubation; type: functional, Salmonella enterica subsp. enterica serovar Typhimurium; details: Salmonella enterica
[19] = tested on: Staphylococcus aureus; assay: Antimicrobial activity against Methicillin-resistant Staphylococcus aureus 43300 assessed as bacterial killing measured after 16 hrs incubation; type: functional
[20] = tested on: Escherichia coli; assay: Antimicrobial activity against Escherichia coli 25922 assessed as absence bacterial growth measured after 18 to 24 hrs incubation in presence of ZnCl2 by NCCLS method; type: functional; details: time 18-24 hrs
[21] = tested on: Staphylococcus aureus; assay: Antimicrobial activity against Staphylococcus aureus 29213 assessed as absence bacterial growth measured after 18 to 24 hrs incubation by NCCLS m; type: functional; details: time 18-24 hrs
[22] = tested on: Bacillus cereus; assay: Antimicrobial activity against Bacillus cereus 1.932 assessed as bacterial killing measured after 16 hrs incubation; type: functional
[23] = tested on: Erythrocyte; assay: Hemolytic activity in human RBC at effective concentration measured after 1 hr by microplate reader analysis; type: toxicity, cell-based
[24] = tested on: Escherichia coli; assay: Antimicrobial activity against Escherichia coli 25922 assessed as bacterial killing measured after 16 hrs incubation; type: functional
[25] = tested on: Escherichia coli; assay: Antimicrobial activity against Escherichia coli 25922 assessed as absence bacterial growth measured after 18 to 24 hrs incubation in presence of 12.5% serum by NCCLS method; type: functional; details: time 18-24 hrs
[26] = tested on: Listeria monocytogenes; assay: Antimicrobial activity against Listeria monocytogenes 1.10753 assessed as bacterial killing measured after 16 hrs incubation; type: functional
[27] = tested on: Escherichia coli; assay: Antimicrobial activity against Escherichia coli K88 assessed as bacterial killing measured after 16 hrs incubation; type: functional
[28] = Cytotoxicity against porcine IPEC-J2 cells assessed as cell survival rate measured after 8 hrs by MTT assay; type: toxicity, cell-based, Sus scrofa; details: pig
[29] = tested on: Acinetobacter baumannii; assay: Antimicrobial activity against Acinetobacter baumannii 1.6769 assessed as bacterial killing measured after 16 hrs incubation; type: functional
[30] = tested on: Staphylococcus aureus; assay: Antimicrobial activity against Staphylococcus aureus 29213 assessed as absence bacterial growth measured after 18 to 24 hrs incubation by NCCLS method; type: functional; details: time 18-24 hrs
[31] = Cytotoxicity against mouse RAW264.7 cells assessed as cell survival rate measured after 8 hrs by MTT assay; type: toxicity, cell-based
[32] = tested on: Escherichia coli; assay: Antimicrobial activity against Escherichia coli 25922 assessed as absence bacterial growth measured after 18 to 24 hrs incubation in presence of NaCl by NCCLS method; type: functional; details: time 18-24 hrs
[33] = tested on: Escherichia coli; assay: Antimicrobial activity against Escherichia coli 25922 assessed as absence bacterial growth measured after 18 to 24 hrs incubation in presence of NH4Cl by NCCLS method; type: functional; details: time 18-24 hrs
[34] = tested on: Escherichia coli; assay: Antimicrobial activity against Escherichia coli 25922 assessed as absence bacterial growth measured after 18 to 24 hrs incubation in presence of 25% serum by NCCLS method; type: functional; details: time 18-24 hrs
[35] = Antimicrobial activity against Salmonella pullorum C7913 assessed as bacterial killing measured after 16 hrs incubation; type: functional, Salmonella enterica subsp. enterica serovar Pullorum; details: Salmonella enterica
[36] = Antimicrobial activity against Salmonella pullorum C7913 assessed as absence bacterial growth measured after 18 to 24 hrs incubation by NCCLS method; type: functional, Salmonella enterica subsp. enterica serovar Pullorum; details: Salmonella enterica, time 18-24 hrs
[37] = tested on: Bacillus cereus; assay: Antimicrobial activity against Bacillus cereus 1.932 assessed as absence bacterial growth measured after 18 to 24 hrs incubation by NCCLS method; type: functional; details: time 18-24 hrs
[38] = tested on: Enterococcus faecalis; assay: Antimicrobial activity against Enterococcus faecalis 29212 assessed as absence bacterial growth measured after 18 to 24 hrs incubation by NCCLS method; type: functional; details: time 18-24 hrs
[39] = tested on: Salmonella typhimurium; assay: Antimicrobial activity against Salmonella typhimurium C7731 assessed as absence bacterial growth measured after 18 to 24 hrs incubation by NCCLS method; type: functional, Salmonella enterica subsp. enterica serovar Typhimurium; details: Salmonella enterica, time 18-24 hrs
[40] = tested on: Staphylococcus aureus; assay: Antimicrobial activity against Methicillin-resistant Staphylococcus aureus 43300 assessed as absence bacterial growth measured after 18 to 24 hrs incubation by NCCLS method; type: functional; details: time 18-24 hrs
[41] = Cytotoxicity against human HEK-293T cells assessed as cell survival rate measured after 8 hrs by MTT assay; type: toxicity, cell-based
[42] = tested on: Staphylococcus aureus; assay: Antimicrobial activity against Staphylococcus aureus 29213 assessed as bacterial killing measured after 16 hrs incubation; type: functional

With H-IKLWLKGGKLWLKGGKLWLKG-NH2 the MIC [1] was 16 µM, the hemolysis at 1 h, 128 µM [2] was < 10% and the MIC [3] was > 32 µM. For the same substance, the MBC [4] was > 32 µM, the MIC [5] was 2 µM and the MIC [6] was 4 µM. For the same substance, the MBC [7] was > 32 µM, the MIC [8] was 4 µM and the MIC [9] was 8 µM. The MIC [10] was 8 µM, the MIC [11] was > 32 µM and the MBC [12] was 8 µM. For the same substance, the MIC [13] was > 32 µM, the MIC [14] was > 32 µM and the MIC [15] was 8 µM. For the same substance, the MBC [16] was > 32 µM, the MBC [17] was 8 µM and the MBC [18] was 32 µM. The MBC [19] was > 32 µM, the MIC [20] was 16 µM and the MIC [21] was > 32 µM. The MBC [22] was > 32 µM, the HC10 [23] was > 128 µM and the MBC [24] was 8 µM. The MIC [25] was > 32 µM, the MBC [26] was > 32 µM and the MBC [27] was 2 µM. The IC50 at 8 h [28] was 31.4 µM, the MBC [29] was 8 µM and the MIC [30] was > 32 µM. For the same substance, the IC50 at 8 h [31] was > 64 µM, the MIC [32] was > 32 µM and the MIC [33] was 8 µM. For the same substance, the MIC [34] was > 32 µM, the MBC [35] was 2 µM and the MIC [36] was 2 µM. The MIC [37] was > 32 µM, the MIC [38] was > 32 µM and the MIC [39] was 8 µM. The MIC [40] was > 32 µM, the IC50 at 8 h [41] was > 64 µM and the MBC [42] was > 32 µM.
In the case of H-MKLWLKGGKLWLKGGKLWLKG-NH2, the MIC [1] is reported as 4 µM, the hemolysis at 1 h, 128 µM [2] is reported as < 10% and the MIC [3] is reported as > 32 µM. For the same substance, the MBC [4] was > 32 µM, the MIC [5] was 1 µM and the MIC [6] was 4 µM. For the same substance, the MBC [7] was > 32 µM, the MIC [8] was 4 µM and the MIC [9] was 8 µM. The MIC [10] was 16 µM, the MIC [11] was > 32 µM and the MBC [12] was 16 µM. The MIC [13] was > 32 µM, the MIC [14] was > 32 µM and the MIC [15] was > 32 µM. The MBC [16] was > 32 µM, the MBC [17] was > 32 µM and the MBC [18] was 32 µM. For the same substance, the MBC [19] was > 32 µM, the MIC [20] was 4 µM and the MIC [21] was > 32 µM. For the same substance, the MBC [22] was > 32 µM, the HC10 [23] was 128 µM and the MBC [24] was 4 µM. For the same substance, the MIC [25] was 32 µM, the MBC [26] was > 32 µM and the MBC [27] was 2 µM. The IC50 at 8 h [28] was 41 µM, the MBC [29] was 16 µM and the MIC [30] was > 32 µM. For the same substance, the IC50 at 8 h [31] was > 64 µM, the MIC [32] was 16 µM and the MIC [33] was 4 µM. It also gave an MIC [34] of 32 µM, an MBC [35] of 2 µM and an MIC [36] of 2 µM. The MIC [37] was > 32 µM, the MIC [38] was > 32 µM and the MIC [39] was 8 µM. The MIC [40] was > 32 µM, the IC50 at 8 h [41] was > 64 µM and the MBC [42] was > 32 µM.
In the case of H-VKLWLKGGKLWLKGGKLWLKG-NH2, the MIC [1] is reported as 4 µM, the hemolysis at 1 h, 128 µM [2] is reported as < 10% and the MIC [3] is reported as > 32 µM. The MBC [4] was > 32 µM, the MIC [5] was 1 µM and the MIC [6] was 4 µM. For the same substance, the MBC [7] was > 32 µM, the MIC [8] was 4 µM and the MIC [9] was 4 µM. For the same substance, the MIC [10] was 8 µM, the MIC [11] was > 32 µM and the MBC [12] was 16 µM. For the same substance, the MIC [13] was > 32 µM, the MIC [14] was > 32 µM and the MIC [15] was > 32 µM. For the same substance, the MBC [16] was > 32 µM, the MBC [17] was > 32 µM and the MBC [18] was 32 µM. The MBC [19] was > 32 µM, the MIC [20] was 4 µM and the MIC [21] was > 32 µM. The MBC [22] was > 32 µM, the HC10 [23] was > 128 µM and the MBC [24] was 16 µM. The MIC [25] was 16 µM, the MBC [26] was > 32 µM and the MBC [27] was 1 µM. The IC50 at 8 h [28] was 60.2 µM, the MBC [29] was 16 µM and the MIC [30] was > 32 µM. For the same substance, the IC50 at 8 h [31] was > 64 µM, the MIC [32] was > 32 µM and the MIC [33] was 8 µM. It also gave an MIC [34] of 32 µM, an MBC [35] of 4 µM and an MIC [36] of 2 µM. The MIC [37] was > 32 µM, the MIC [38] was > 32 µM and the MIC [39] was 8 µM. For the same substance, the MIC [40] was > 32 µM, the IC50 at 8 h [41] was > 64 µM and the MBC [42] was > 32 µM.

Source: ChEMBL document CHEMBL5518215, “Unlocking Antibacterial Potential: Key-Site-Based Regulation of Antibacterial Spectrum of Peptides” (J Med Chem, 2024)
